According to article PMC10354055, “An optimized Nurr1 agonist provides disease-modifying effects in Parkinson’s disease models” (Nature Communications, 2023):
“And” between values parts separate entries of the source, which are not always exact repeats. Equal values may be shown once.

Key:
Nurr1-LBD [1] = target: T1, Nurr1-LBD (Mus musculus, UniProt Q06219); test: Luciferase reporter assay, Nurr1-LBD, SK-N-BE(2)C cells; type: cell-based; conditions: for Maximum fold activity / EC50: Nurr1 activation; for Maximum fold activity: Supplementary Table 1; for Nurr1 activation (in words): Nurr1 reporter assays
T1 construct: transfected with pCMV-fNurr1, pGAL-Nurr1(LBD), pGAL-Nor1(LBD) or pGAL-Nur77(LBD) and reporter construct; expressed in transfected cells; host or cells: SK-N-BE(2)C (human neuroblastoma), N27-A (rat dopaminergic), MN9D (murine dopaminergic)
T1 sequence (Q06219 360-595 limits assumed): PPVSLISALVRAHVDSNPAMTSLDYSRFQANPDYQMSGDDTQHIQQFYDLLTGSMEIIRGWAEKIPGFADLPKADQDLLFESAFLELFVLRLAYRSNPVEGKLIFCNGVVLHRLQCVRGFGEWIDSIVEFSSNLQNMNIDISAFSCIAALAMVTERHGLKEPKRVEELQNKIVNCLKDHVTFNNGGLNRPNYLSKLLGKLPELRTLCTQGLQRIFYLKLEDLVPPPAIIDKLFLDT
Excerpt: Nurr1 transactivity was normalized to β-galactosidase activity.

Nurr1-LBD [2] = target: T2, Nurr1-LBD (Homo sapiens, UniProt P43354); test: [3H]-CQ radioligand competition binding assay; conditions: Fig. 1h
T2 sequence (P43354 360-595 limits assumed, species assumed): as the sequence (Q06219 360-595 limits assumed) above
Description: Saturation and competition assays were performed as previously described. For saturation assay, 0.2 µM of Nurr1-LBD and 125-10,000 nM of [^3H]-CQ were incubated in binding buffer (20 mM sodium acetate buffer (pH 5.2)) at 4 °C overnight. […] Assay mixtures were applied to GF/B filters (Brandel Inc.) to capture Nurr1-LBD bounded ligands. […] All graphs and IC50 values were generated using the non-linear regression program in GraphPad Prism version 8.0.2.

Nurr1-LBD [3] = target: T2, Nurr1-LBD; test: TR-FRET competition assay with HCQFluo; type: binding; conditions: Fig. 1i
Description: TR-FRET assay was performed in PPI Terbium (Tb) detection buffer (PerkinElmer) and contained 0.2 µM of Nurr1-LBD, 0.5 µM of fluorescence-labeled hydroxy-CQ (HCQFluo; Proimaging) and serial concentrations of CQ, 4A7C-301 or RA (10^−4–10^6 nM). Rabbit anti-Nurr1 antibody (3 nM; prepared in our lab) and anti-rabbit IgG-Tb (1:400; Cisbio, 61PARTAF) were included in the assay solution as a donor complex. Assay solutions were loaded in a 384-well OptiPlate™ (PerkinElmer). After 2 h incubation in the dark at room temperature, the FRET signal was measured by excitation at 340 nm and emission at 520 nm for fluorescein and 495 nm for Tb using a VICTOR Nivo plate reader (PerkinElmer). Data were fit using the non-linear regression program in GraphPad Prism version 8.0.2.

[4] = Supplementary Table 1, values given in nM
[5] = Supplementary Table 1, values in µM

CCN1CCN(c2nc(C)cc(NCCCNc3ccnc4cc(Cl)ccc34)n2)CC1 [4A7C-102]
Maximum fold activity (Nurr1-LBD [1]): 3.68 ± 0.04 fold and 3.68 fold | EC50 (Nurr1-LBD [1]; [4]): 143 nM

CCN1CCN(c2cc(Cl)nc(NCCCNc3ccnc4cc(Cl)ccc34)n2)CC1 [4A7C-103]
Maximum fold activity (Nurr1-LBD [1]): 3.52 ± 0.19 fold | EC50 (Nurr1-LBD [1]; [4]): 634.5 ± 1.37 nM | Nurr1 activation (in words) (Nurr1-LBD [1]): diminished Nurr1 activity

CCN1CCN(c2cc(Cl)nc(NCCNc3ccnc4cc(Cl)ccc34)n2)CC1 [4A7C-104]
Maximum fold activity (Nurr1-LBD [1]): 2.63 ± 0.58 fold | EC50 (Nurr1-LBD [1]; [4]): 316 ± 39.8 nM | Nurr1 activation (in words) (Nurr1-LBD [1]): better Nurr1 EC50 than 4A7C-103

Cc1cc(N2CCN(CCNc3ccnc4cc(Cl)ccc34)CC2)nc(N2CCN(C)CC2)n1 [4A7C-201]
Maximum fold activity (Nurr1-LBD [1]): 4.78 ± 0.31 fold | EC50 (Nurr1-LBD [1]; [4]): 14.6 ± 1.38 nM

Cc1cc(N2CCN(CCNc3ccnc4cc(Cl)ccc34)CC2)nc(N2CCCC2)n1 [4A7C-202]
Maximum fold activity (Nurr1-LBD [1]): 3.78 ± 0.25 fold | EC50 (Nurr1-LBD [1]; [4]): 1.28 ± 0.63 nM

Clc1ccc2c(NCCN3CCN(c4ccnc(Cl)n4)CC3)ccnc2c1 [4A7C-203]
Maximum fold activity (Nurr1-LBD [1]): 4.22 ± 0.16 fold | EC50 (Nurr1-LBD [1]; [4]): 17 ± 4.97 nM

Clc1ccc2c(NCCN3CCN(c4ccnc(N5CCSCC5)n4)CC3)ccnc2c1 [4A7C-204]
Maximum fold activity (Nurr1-LBD [1]): 4.46 ± 0.67 fold | EC50 (Nurr1-LBD [1]; [4]): 33.7 ± 0.34 nM

CCN1CCN(c2nccc(N3CCN(CCNc4ccnc5cc(Cl)ccc45)CC3)n2)CC1 [4A7C-206]
Maximum fold activity (Nurr1-LBD [1]): 10.71 ± 0.44 fold | EC50 (Nurr1-LBD [1]; [5]): 10000 ± 760 nM

CCN1CCN(c2cc(NCCNc3ccnc4cc(Cl)ccc34)nc(N3CCN(CC)CC3)n2)CC1 [4A7C-303]
Maximum fold activity (Nurr1-LBD [1]): 9.50 ± 0.22 fold | EC50 (Nurr1-LBD [1]; [4]): 8.5 ± 18.6 nM | Nurr1 activation (in words) (Nurr1-LBD [1]): good activity

CCN1CCN(c2cc(N3CCCCC3)nc(NCCNc3ccnc4cc(Cl)ccc34)n2)CC1 [4A7C-304]
Maximum fold activity (Nurr1-LBD [1]): 2.16 ± 0.03 fold | EC50 (Nurr1-LBD [1]; [4]): 9.67 ± 7.87 nM | Nurr1 activation (in words) (Nurr1-LBD [1]): good Nurr1 activities

CCN1CCN(c2cc(N3CCOCC3)nc(NCCNc3ccnc4cc(Cl)ccc34)n2)CC1 [4A7C-305]
Maximum fold activity (Nurr1-LBD [1]): 7.60 ± 0.08 fold | EC50 (Nurr1-LBD [1]; [5]): 1040 nM | Nurr1 activation (in words) (Nurr1-LBD [1]): good Nurr1 activities

CCN1CCN(c2cc(N3CCN(C)CC3)nc(NCCNc3ccnc4cc(Cl)ccc34)n2)CC1 [4A7C-306]
Maximum fold activity (Nurr1-LBD [1]): 10.01 ± 0.06 fold | EC50 (Nurr1-LBD [1]; [4]): 25.5 ± 42.2 nM | Nurr1 activation (in words) (Nurr1-LBD [1]): good Nurr1 activities

CCN1CCN(c2nc(NCCCCNc3ccnc4cc(Cl)ccc34)c3ccccc3n2)CC1 [4A7C-401]
Maximum fold activity (Nurr1-LBD [1]): 3.01 ± 0.13 fold | EC50 (Nurr1-LBD [1]; [4]): 2.62 ± 0.96 nM

Cc1cc(N(CCNc2ccnc3cc(Cl)ccc23)Cc2ccc3c(c2)OCO3)nc(N2CCN(C)CC2)n1 [4A7C-501]
Maximum fold activity (Nurr1-LBD [1]): 10.51 ± 0.85 fold | EC50 (Nurr1-LBD [1]; [5]): 3390 ± 260 nM

Cc1cc(N(CCNc2ccnc3cc(Cl)ccc23)Cc2cccs2)nc(Cl)n1 [4A7C-502]
Maximum fold activity (Nurr1-LBD [1]): 4.99 ± 0.86 fold | EC50 (Nurr1-LBD [1]; [4]): 0.51 ± 0.06 nM

Cc1cc(N2CCOCC2)nc(N(CCNc2ccnc3cc(Cl)ccc23)Cc2cccs2)n1 [4A7C-503]
Maximum fold activity (Nurr1-LBD [1]): 2.25 ± 0.26 fold | EC50 (Nurr1-LBD [1]; [4]): 1.07 ± 0.12 nM

Cc1cc(N2CCN(C)CC2)nc(N(CCNc2ccnc3cc(Cl)ccc23)Cc2cccs2)n1 [4A7C-504]
Maximum fold activity (Nurr1-LBD [1]): 4.07 ± 0.53 fold | EC50 (Nurr1-LBD [1]; [4]): 431 ± 15.1 nM

Cc1cc(N(CCNc2ccnc3cc(Cl)ccc23)Cc2cccs2)nc(N2CCCCC2)n1 [4A7C-505]
Maximum fold activity (Nurr1-LBD [1]): 3.65 ± 0.31 fold | EC50 (Nurr1-LBD [1]; [4]): 2.14 ± 0.45 nM

Cc1cc(N(CCNc2ccnc3cc(Cl)ccc23)Cc2cccs2)nc(N2CCOCC2)n1 [4A7C-506]
Maximum fold activity (Nurr1-LBD [1]): 4.49 ± 0.43 fold | EC50 (Nurr1-LBD [1]; [4]): 9.83 ± 0.29 nM

CCN1CCN(c2cc(C)nc(N(CCNc3ccnc4cc(Cl)ccc34)Cc3cccs3)n2)CC1 [4A7C-507]
Maximum fold activity (Nurr1-LBD [1]): 3.24 ± 0.40 fold | EC50 (Nurr1-LBD [1]; [4]): 94.9 ± 1.66 nM

Clc1ccc2c(NCCN3CCN(c4nccc(-n5ccnc5)n4)CC3)ccnc2c1 [4A7C-509]
Maximum fold activity (Nurr1-LBD [1]): 3.43 ± 0.42 fold | EC50 (Nurr1-LBD [1]; [4]): 113 ± 19.2 nM

Cc1cc(NC2CCCC(Nc3ccnc4cc(Cl)ccc34)C2)nc(Cl)n1 (centres unmarked) [4A7C-601]
Maximum fold activity (Nurr1-LBD [1]): 3.81 ± 0.17 fold | EC50 (Nurr1-LBD [1]; [4]): 110 ± 27.1 nM

Cc1cc(NC2CCCC(Nc3ccnc4cc(Cl)ccc34)C2)nc(N2CCN(c3ccccc3)CC2)n1 (centres unmarked) [4A7C-602]
Maximum fold activity (Nurr1-LBD [1]): 3.44 ± 0.28 fold | EC50 (Nurr1-LBD [1]; [5]): 3860 ± 260 nM

Cc1cc(NC2CCCC(Nc3ccnc4cc(Cl)ccc34)C2)nc(N2CCCCC2)n1 (centres unmarked) [4A7C-603]
Maximum fold activity (Nurr1-LBD [1]): 6.84 ± 0.52 fold | EC50 (Nurr1-LBD [1]; [5]): 1220 ± 20 nM

Cc1cc(N2CCCC2)nc(NC2CCCC(Nc3ccnc4cc(Cl)ccc34)C2)n1 (centres unmarked) [4A7C-604]
Maximum fold activity (Nurr1-LBD [1]): 4.24 ± 0.45 fold | EC50 (Nurr1-LBD [1]; [5]): 1030 ± 420 nM

Cc1cc(NC2CCCC(Nc3ccnc4cc(Cl)ccc34)C2)nc(N2CCOCC2)n1 (centres unmarked) [4A7C-605]
Maximum fold activity (Nurr1-LBD [1]): 5.71 ± 0.81 fold | EC50 (Nurr1-LBD [1]; [5]): 1080 ± 370 nM

Cc1cc(N2CCSCC2)nc(NC2CCCC(Nc3ccnc4cc(Cl)ccc34)C2)n1 (centres unmarked) [4A7C-606]
Maximum fold activity (Nurr1-LBD [1]): 5.72 ± 0.16 fold | EC50 (Nurr1-LBD [1]; [5]): 1540 ± 360 nM

Cc1cc(N2CCN(C)CC2)nc(NC2CCCC(Nc3ccnc4cc(Cl)ccc34)C2)n1 (centres unmarked) [4A7C-607]
Maximum fold activity (Nurr1-LBD [1]): 4.50 ± 1.59 fold | EC50 (Nurr1-LBD [1]; [5]): 2230 ± 400 nM

Cc1cc(N2CCN(c3ccccc3)CC2)nc(NC2CCCC(Nc3ccnc4cc(Cl)ccc34)C2)n1 (centres unmarked) [4A7C-608]
Maximum fold activity (Nurr1-LBD [1]): 6.31 ± 0.82 fold | EC50 (Nurr1-LBD [1]; [5]): 1140 ± 130 nM

Cc1cc(N2CCCCC2)nc(NC2CCCC(Nc3ccnc4cc(Cl)ccc34)C2)n1 (centres unmarked) [4A7C-609]
Maximum fold activity (Nurr1-LBD [1]): 4.83 ± 0.51 fold | EC50 (Nurr1-LBD [1]; [5]): 1190 ± 610 nM

CC1=C(/C=C/C(C)=C/C=C/C(C)=C/C(=O)O)C(C)(C)CCC1 [RA, Retinoic acid]
% of Specific binding (Nurr1-LBD [2]; competitor conc. 0.0001 (µM)): 87.8740% and 90.3786% and 97.0000% | % of Specific binding (Nurr1-LBD [2]; competitor conc. 0.001 (µM)): 101.4488% and 96.8455% and 90.6575% | % of Specific binding (Nurr1-LBD [2]; competitor conc. 0.01 (µM)): 93.0895% and 89.2521% and 94.1409% | % of Specific binding (Nurr1-LBD [2]; competitor conc. 0.1 (µM)): 82.0986% and 95.6235% and 83.0156% | % of Specific binding (Nurr1-LBD [2]; competitor conc. 1 (µM)): 87.3597% and 82.6821% and 79.1883% | % of Specific binding (Nurr1-LBD [2]; competitor conc. 10 (µM)): 63.0000% and 75.1862% and 67.5572% | % of Specific binding (Nurr1-LBD [2]; competitor conc. 100 (µM)): 42.2356% and 49.1037% and 43.9315% | % of Specific binding (Nurr1-LBD [2]; competitor conc. 1000 (µM)): 32.2111% and 35.0331% and 30.1369% | % of Specific binding (Nurr1-LBD [2]; competitor conc. 10000 (µM)): 18.6132% and 23.0315% and 23.7161% | % of Specific binding (Nurr1-LBD [2]; competitor conc. 100000 (µM)): 12.2908% and 10.3348% and 16.3962% | % of Specific binding (Nurr1-LBD [2]; competitor conc. 1000000 (µM)): 8.1147% and 11.0894% and 7.4333% | Interaction [HTRF] (Nurr1-LBD [3]; 0.05 µM): 2835.2000 and 2760.8790 and 2798.0390 | Interaction [HTRF] (Nurr1-LBD [3]; 0.1 µM): 2218.7830 and 2060.7720 and 2139.7770 | Interaction [HTRF] (Nurr1-LBD [3]; 0.5 µM): 1239.9030 and 1522.7770 and 1381.3400 | Interaction [HTRF] (Nurr1-LBD [3]; 1 µM): 1217.7040 and 1012.7510 and 1115.2270 | Interaction [HTRF] (Nurr1-LBD [3]; 5 µM): 750.0158 and 977.4576 and 863.7367 | Interaction [HTRF] (Nurr1-LBD [3]; 10 µM): 824.6545 and 715.3943 and 770.0244 | Interaction [HTRF] (Nurr1-LBD [3]; 50 µM): 734.0843 and 751.1574 and 742.6208 | Interaction [HTRF] (Nurr1-LBD [3]; 100 µM): 637.6497 and 793.8474 and 715.7485 | Interaction [HTRF] (Nurr1-LBD [3]; 200 µM): 603.5579 and 705.9392 and 654.7485
